Measured values: patent US10933051B2, “Carbapenem compounds and compositions for the treatment of bacterial infections” (FOB Synthesis, Inc., priority 2017, dated 2021)

What was measured:
Format in all cases: cell-based
Parameters in all cases: unit not given here
K. pneumoniae BAA-1904 = assay: Antimicrobial Susceptibility Test (CLSI), Test Example 3; details: Table 6; strain produces KPC-3
Description: (§1) Antimicrobial Susceptibility Test was performed by the CLSI (Clinical and Laboratory Standards Institute) methods. The agar dilution method for determining antimicrobial susceptibility was carried out using Mueller Hinton-II agar and the amount of inoculation was 10^4CFU/spot. Broth dilution tests were performed using the Mueller Hinton-II broth. All assays were run with the indicated control strains, available from the ATCC (American Type Culture Collection, Rockville, Md.).

A. baumannii FSAb-056 [1] = assay: as above; details: Table 6; strain produces OXA-23, 51
Description: as §1

A. baumannii FSAb-141 = assay: as above; details: Table 6; strain produces PER-1, OXA-23, 51, 66
Description: as §1

P. aeruginosa FSPa-102 = assay: as above; details: Table 6; strain produces IMP-1
Description: as §1

E. coli FSEco-054 [2] = assay: as above; details: Table 6; strain produces ESBL
Description: as §1

P. aeruginosa FSPa-141 = assay: as above; details: Table 6; strain produces VIM-2
Description: as §1

A. baumannii FSAb-029 [3] = assay: as above; details: Table 6; strain produces OXA-2, IMP-1
Description: as §1

A. baumannii FSAb-039 [4] = assay: as above; details: Table 6; strain produces OXA-51
Description: as §1

A. baumannii FSAb-065 = assay: Antimicrobial Susceptibility Test (CLSI), Test Example 2; details: Table 4; strain produces OXA-2, VIM-2
Description: as §1

A. baumannii FSAb-056 [5] = assay: as above; details: Table 4; strain produces OXA-23, OXA-51
Description: as §1

E. coli FSEco-054 [6] = assay: as above; details: Table 4; strain produces ESBL
Description: as §1

P. aeruginosa FSPa-121 = assay: as above; details: Table 4; strain produces OXA-17
Description: as §1

A. baumannii FSAb-029 [7] = assay: as above; details: Table 4; strain produces OXA-2, IMP-1
Description: as §1

[8] = test system: K. pneumoniae ATCC BAA-1904; assay: as above; details: Table 4; strain produces KPC-3
Description: as §1

A. baumannii FSAb-039 [9] = assay: as above; details: Table 4; strain produces OXA-51
Description: as §1

| SMILES | antimicrobial susceptibility, Kp BAA-1904 (K. pneumoniae BAA-1904) | antimicrobial susceptibility, Ab FSAb-056 (A. baumannii FSAb-056 [1]) | antimicrobial susceptibility, Ab FSAb-141 (A. baumannii FSAb-141) | antimicrobial susceptibility, Pa FSPa-102 (P. aeruginosa FSPa-102) | antimicrobial susceptibility, Ec FSEco-054 (E. coli FSEco-054 [2]) | antimicrobial susceptibility, Pa FSPa-141 (P. aeruginosa FSPa-141) | antimicrobial susceptibility, Ab FSAb-029 (A. baumannii FSAb-029 [3]) | antimicrobial susceptibility, Ab FSAb-039 (A. baumannii FSAb-039 [4]) | antimicrobial susceptibility, A. baumannii FSAb-065 (A. baumannii FSAb-065) | antimicrobial susceptibility, A. baumannii FSAb-056 (A. baumannii FSAb-056 [5]) | antimicrobial susceptibility, E. coil FSEco-054 (E. coli FSEco-054 [6]) | antimicrobial susceptibility, P. aeruginosa FSPa-121 (P. aeruginosa FSPa-121) | antimicrobial susceptibility, A. baumannii FSAb-029 (A. baumannii FSAb-029 [7]) | antimicrobial susceptibility, K. pneumoniae BAA-1904 [8] | antimicrobial susceptibility, A. baumannii FSAb-039 (A. baumannii FSAb-039 [9]) |
| --- | --- | --- | --- | --- | --- | --- | --- | --- | --- | --- | --- | --- | --- | --- | --- |
| C[C@@H](O)[C@H]1C(=O)N2C(C(=O)O)=C(CN(CCCCNC(=O)c3ccc(O)c(O)c3)CCCNC(=O)c3ccc(O)c(O)c3)[C@H](C)[C@H]12 [Compound 111] | >32 | 8 | 2 | 4 | 4 | 16 | 2 | 4 |  |  |  |  |  |  |  |
| C[C@@H](O)[C@H]1C(=O)N2C(C(=O)O)=C(CN(C)CC(=O)N(CCCNC(=O)c3ccc(O)c(O)c3F)CCCNC(=O)c3ccc(O)c(O)c3F)[C@H](C)[C@H]12 [Compound 115] | >32 | 8 | 2 | 2 | 2 | 4 | 2 | 4 |  |  |  |  |  |  |  |
| C[C@@H](O)[C@H]1C(=O)N2C(C(=O)O)=C(CN(CCCCNC(=O)c3cccc(O)c3O)CCCNC(=O)c3cccc(O)c3O)[C@H](C)[C@H]12 [Compound 113] | >32 | >32 | >32 | >32 | >32 | >32 | >32 | >32 |  |  |  |  |  |  |  |
| C[C@@H](O)[C@H]1C(=O)N2C(C(=O)O)=C(CN(CCCNC(=O)c3ccc(O)c(O)c3)CCCNC(=O)c3ccc(O)c(O)c3)[C@H](C)[C@H]12 [Compound 110] | >32 | 8 | 4 | 8 | 4 | 16 | 2 | 8 |  |  |  |  |  |  |  |
| COc1ccc(C(=O)NCCCN(CCCNC(=O)c2ccc(O)c(O)c2F)CC2=C(C(=O)O)N3C(=O)[C@H]([C@@H](C)O)[C@H]3[C@H]2C)c(F)c1OC [Compound 119] | >32 | 8 | 8 | >32 | 16 | >32 | 4 | 8 |  |  |  |  |  |  |  |
| C[C@@H](O)[C@H]1C(=O)N2C(C(=O)[O-])=C(CN(C)CC[N+](C)(CCCNC(=O)c3ccc(O)c(O)c3F)CCCNC(=O)c3ccc(O)c(O)c3F)[C@H](C)[C@H]12 [Compound 118] | >32 | 8 | 4 | 4 | 2 | 8 | 2 | 8 |  |  |  |  |  |  |  |
| C[C@@H](O)[C@H]1C(=O)N2C(C(=O)O)=C(CN(CCCCNC(=O)c3ccc(O)c(O)c3Cl)CCCNC(=O)c3ccc(O)c(O)c3Cl)[C@H](C)[C@H]12 [Compound 108] | >32 | 4 | 1 | 2 | 1 | 2 | 1 | 2 |  |  |  |  |  |  |  |
| C[C@@H](O)[C@H]1C(=O)N2C(C(=O)O)=C(CN(C)CC(=O)N(CCCNC(=O)c3ccc(O)c(O)c3F)CCCNC(=O)c3ccc(O)c(O)c3F)[C@H](C)[C@H]12 [Compound 117] | >32 | 4 | 2 | 2 | 1 | 8 | 2 | 4 |  |  |  |  |  |  |  |
| C[C@@H](O)[C@H]1C(=O)N2C(C(=O)O)=C(CN(CCNC(=O)c3ccc(O)c(O)c3F)CCNC(=O)c3ccc(O)c(O)c3F)[C@H](C)[C@H]12 [Compound 101] | >32 | 4 | 0.5 | 1 | 2 | 1 | 0.25 | 2 |  |  |  |  |  |  |  |
| C[C@@H](O)[C@H]1C(=O)N2C(C(=O)O)=C(CN(C)CCNC(=O)c3ccc(Cl)cc3)[C@H](C)[C@H]12 [Compound 14] |  |  |  |  |  |  |  |  | >32 | >32 | >32 | >32 | >32 | 16 | >32 |
| C[C@@H](O)[C@H]1C(=O)N2C(C(=O)O)=C(CN(C)CCNC(=O)c3cccc(O)c3Cl)[C@H](C)[C@H]12 [Compound 11] |  |  |  |  |  |  |  |  | 32 | 32 | >32 | >32 | 32 | 8 | >32 |
| C[C@@H](O)[C@H]1C(=O)N2C(C(=O)O)=C(CN3CC(NC(=O)c4ccc(O)c(O)c4Cl)C3)[C@H](C)[C@H]12 [Compound 38] |  |  |  |  |  |  |  |  | 0.25 | 4 | 2 | 4 | 0.5 | 16 | 4 |
| C[C@@H](O)[C@H]1C(=O)N2C(C(=O)O)=C(CN3C[C@@H](NC(=O)c4ccc(O)c(O)c4Cl)C[C@H]3C(N)=O)[C@H](C)[C@H]12 [Compound 32] |  |  |  |  |  |  |  |  | 1 | 16 | 4 | 1 | 2 | >32 | >32 |
| C[C@@H](O)[C@H]1C(=O)N2C(C(=O)O)=C(CN(C)CCNC(=O)c3cccc(O)c3F)[C@H](C)[C@H]12 [Compound 12] |  |  |  |  |  |  |  |  | 32 | 32 | >32 | >32 | 32 | 4 | >32 |
| C[C@@H](O)[C@H]1C(=O)N2C(C(=O)[O-])=C(C[N+](C)(C)CCNC(=O)c3ccc(O)c(O)c3Cl)[C@H](C)[C@H]12 [Compound 40] |  |  |  |  |  |  |  |  | 4 | 8 | 4 | 4 | 8 | 16 | 16 |
| C[C@@H](O)[C@H]1C(=O)N2C(C(=O)O)=C(CN(C)CCNC(=O)c3cc(O)c(O)c(F)c3)[C@H](C)[C@H]12 [Compound 7] |  |  |  |  |  |  |  |  | 2 | 2 | 2 | 2 | 2 | 16 | 4 |
| C[C@@H](O)[C@H]1C(=O)N2C(C(=O)O)=C(CN3CCC(C(=O)NCc4ccc(O)c(O)c4Cl)C3)[C@H](C)[C@H]12 (some centres unmarked) [Compound 37] |  |  |  |  |  |  |  |  | 4 | 16 | 8 | 8 | 8 | >32 | 32 |
